Laboratory results as given in patent US12077503B2, “Substituted cyclic amides and their use as herbicides” (FMC CORPORATION, priority 2015, dated 2024).
Where two headings read alike, the source gives them in different places.

Experiments:
Experiment in all cases: Test A preemergence
Format in all cases: in vivo
Kochia (Kochia scoparia) = details: Bassia scoparia, pre-emergence, 240 h; for pest or weed control at 125 g/ha: 125 g ai/ha; for pest or weed control at 500 g/ha: 500 g ai/ha
Procedure, shortened: (§1)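 Preemergence soil spray on seeded pots or post-emergence spray on 1–2 leaf plants, in loam–sand blend. Greenhouse ~10 d. Visual rating 0–100 against untreated plants.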

[1] = test system: barnyardgrass (Echinochloa crus-galli); details: Echinochloa crus-galli, pre-emergence, 240 h; for pest or weed control at 125 g/ha: 125 g ai/ha; for pest or weed control at 500 g/ha: 500 g ai/ha
Procedure, shortened: as §1

[2] = test system: giant foxtail (Setaria faberii); details: Setaria faberi, pre-emergence, 240 h; for pest or weed control at 125 g/ha: 125 g ai/ha; for pest or weed control at 500 g/ha: 500 g ai/ha
Procedure, shortened: as §1

[3] = test system: ragweed (common ragweed, Ambrosia elatior); details: Ambrosia artemisiifolia, pre-emergence, 240 h; for pest or weed control at 125 g/ha: 125 g ai/ha; for pest or weed control at 500 g/ha: 500 g ai/ha
Procedure, shortened: as §1

[4] = test system: ryegrass, Italian (Italian ryegrass, Lolium multiflorum); details: Lolium multiflorum, pre-emergence, 240 h; for pest or weed control at 125 g/ha: 125 g ai/ha; for pest or weed control at 500 g/ha: 500 g ai/ha
Procedure, shortened: as §1

[5] = preemergence, 0 to 100 scale where 0 is no effect and 100 is complete control, read-out: Kochia plant response rating
[6] = Preemergence, visual injury vs untreated controls after approximately 10 d, read-out: Kochia plant response rating (0 to 100 scale where 0 is no effect and 100 is complete control)
[7] = preemergence, 0 to 100 scale where 0 is no effect and 100 is complete control, read-out: Barnyardgrass plant response rating
[8] = Preemergence, visual injury vs untreated controls after approximately 10 d, read-out: Barnyardgrass plant response rating (0 to 100 scale where 0 is no effect and 100 is complete control)
[9] = preemergence, 0 to 100 scale where 0 is no effect and 100 is complete control, read-out: Foxtail, Giant plant response rating
[10] = Preemergence, visual injury vs untreated controls after approximately 10 d, read-out: Foxtail, Giant plant response rating (0 to 100 scale where 0 is no effect and 100 is complete control)
[11] = preemergence, 0 to 100 scale where 0 is no effect and 100 is complete control, read-out: Ragweed plant response rating
[12] = Preemergence, visual injury vs untreated controls after approximately 10 d, read-out: Ragweed plant response rating (0 to 100 scale where 0 is no effect and 100 is complete control)
[13] = preemergence, 0 to 100 scale where 0 is no effect and 100 is complete control, read-out: Ryegrass, Italian plant response rating
[14] = Preemergence, visual injury vs untreated controls after approximately 10 d, read-out: Ryegrass, Italian plant response rating (0 to 100 scale where 0 is no effect and 100 is complete control)
[15] = Preemergence, visual injury rating after approximately 10 d, read-out: Kochia plant response rating (0 to 100 scale, 0 is no effect, 100 is complete control)
[16] = preemergence, visual injury rating about 10 d after treatment, 0 to 100 scale (0 no effect, 100 complete control), read-out: Kochia plant response rating
[17] = Preemergence, visual injury rating after approximately 10 d, read-out: Barnyardgrass plant response rating (0 to 100 scale, 0 is no effect, 100 is complete control)
[18] = preemergence, visual injury rating about 10 d after treatment, 0 to 100 scale (0 no effect, 100 complete control), read-out: Barnyardgrass plant response rating
[19] = Preemergence, visual injury rating after approximately 10 d, read-out: Foxtail, Giant plant response rating (0 to 100 scale, 0 is no effect, 100 is complete control)
[20] = preemergence, visual injury rating about 10 d after treatment, 0 to 100 scale (0 no effect, 100 complete control), read-out: Foxtail, Giant plant response rating
[21] = Preemergence, visual injury rating after approximately 10 d, read-out: Ragweed plant response rating (0 to 100 scale, 0 is no effect, 100 is complete control)
[22] = preemergence, visual injury rating about 10 d after treatment, 0 to 100 scale (0 no effect, 100 complete control), read-out: Ragweed plant response rating
[23] = Preemergence, visual injury rating after approximately 10 d, read-out: Ryegrass, Italian plant response rating (0 to 100 scale, 0 is no effect, 100 is complete control)
[24] = preemergence, visual injury rating about 10 d after treatment, 0 to 100 scale (0 no effect, 100 complete control), read-out: Ryegrass, Italian plant response rating

In the case of `CN1C[C@H](c2cc(F)cc(F)c2)[C@@H](C(=O)Nc2ccc(C(F)(F)F)cn2)C1=O` [Compound 869], the pest or weed control at 125 g/ha (Kochia (Kochia scoparia); [5]) is reported as 0%, the pest or weed control at 500 g/ha (Kochia (Kochia scoparia); [6]) is reported as 0% and the pest or weed control at 125 g/ha [1, 7] is reported as 60%. For the same compound, the pest or weed control at 500 g/ha [1, 8] was 90%, the pest or weed control at 125 g/ha [2, 9] was 90% and the pest or weed control at 500 g/ha [2, 10] was 90%. It also gave a pest or weed control at 125 g/ha [3, 11] of 0%, a pest or weed control at 500 g/ha [3, 12] of 0% and a pest or weed control at 125 g/ha [4, 13] of 0%. It also gave a pest or weed control at 500 g/ha [4, 14] of 0%.

`COc1ccc([C@H]2CN(C)C(=O)[C@@H]2C(=O)Nc2cccc(F)c2F)cc1F` [Compound 1021] showed a pest or weed control at 125 g/ha (Kochia (Kochia scoparia); [15]) of 70%, a pest or weed control at 500 g/ha (Kochia (Kochia scoparia); [16]) of 90% and a pest or weed control at 125 g/ha [1, 17] of 100%. The pest or weed control at 500 g/ha [1, 18] was 100%, the pest or weed control at 125 g/ha [2, 19] was 100% and the pest or weed control at 500 g/ha [2, 20] was 100%. For the same compound, the pest or weed control at 125 g/ha [3, 21] was 70%, the pest or weed control at 500 g/ha [3, 22] was 70% and the pest or weed control at 125 g/ha [4, 23] was 0%. For the same compound, the pest or weed control at 500 g/ha [4, 24] was 20%.

Compound `CN1CC[C@H](c2ccc(OC(F)(F)F)cc2)[C@@H](C(=O)Nc2cccc(F)c2F)C1=O` [Compound 999] has a pest or weed control at 125 g/ha (Kochia (Kochia scoparia); [15]) of 0%, a pest or weed control at 500 g/ha (Kochia (Kochia scoparia); [16]) of 20% and a pest or weed control at 125 g/ha [1, 17] of 70%. The pest or weed control at 500 g/ha [1, 18] was 90%, the pest or weed control at 125 g/ha [2, 19] was 90% and the pest or weed control at 500 g/ha [2, 20] was 90%. For the same compound, the pest or weed control at 125 g/ha [3, 21] was 0%, the pest or weed control at 500 g/ha [3, 22] was 30% and the pest or weed control at 125 g/ha [4, 23] was 0%. It also gave a pest or weed control at 500 g/ha [4, 24] of 50%.

`CN1C[C@H](c2cccc(COC(F)F)c2)[C@@H](C(=O)Nc2cccc(F)c2F)C1=O` [Compound 873] gave a pest or weed control at 125 g/ha (Kochia (Kochia scoparia); [5]) of 80%, a pest or weed control at 500 g/ha (Kochia (Kochia scoparia); [6]) of 90% and a pest or weed control at 125 g/ha [1, 7] of 90%. It also gave a pest or weed control at 500 g/ha [1, 8] of 90%, a pest or weed control at 125 g/ha [2, 9] of 90% and a pest or weed control at 500 g/ha [2, 10] of 100%. The pest or weed control at 125 g/ha [3, 11] was 40%, the pest or weed control at 500 g/ha [3, 12] was 90% and the pest or weed control at 125 g/ha [4, 13] was 50%. It also gave a pest or weed control at 500 g/ha [4, 14] of 80%.

Compound `Cc1cc(C)cc([C@H]2CN(C)C(=O)[C@@H]2C(=O)Nc2cccc(F)c2F)c1` [Compound 911] has a pest or weed control at 125 g/ha (Kochia (Kochia scoparia); [5]) of 90%, a pest or weed control at 500 g/ha (Kochia (Kochia scoparia); [6]) of 100% and a pest or weed control at 125 g/ha [1, 7] of 90%. The pest or weed control at 500 g/ha [1, 8] was 100%, the pest or weed control at 125 g/ha [2, 9] was 90% and the pest or weed control at 500 g/ha [2, 10] was 100%. It also gave a pest or weed control at 125 g/ha [3, 11] of 0%, a pest or weed control at 500 g/ha [3, 12] of 60% and a pest or weed control at 125 g/ha [4, 13] of 70%. For the same compound, the pest or weed control at 500 g/ha [4, 14] was 90%.
